Experimental data as given in ChEMBL document CHEMBL1149482, “Syntheses of triazole-modified zanamivir analogues via click chemistry and anti-AIV activities” (Bioorg Med Chem Lett, 2006).
Activity calls are given as the source filed them. The calls are words filed in the database; no cut-off is given here.

How the values were obtained:
MDCK [1] = assay: Antiviral activity against avian influenza virus H5N1 measured as protective rate against MDCK cells at 50 uM by neutral red uptake assay; assay type: functional
MDCK [2] = assay: Antiviral activity against avian influenza virus H5N1 in MDCK cells measured as reduction in infected cells relative to control; assay type: functional, cell-based; conditions: Canis lupus familiaris

Which Activity (MDCK [1]) does the source give for `CCC(O)c1cn([C@H]2C=C(C(=O)OCCC(C)C)O[C@@H]([C@H](O)[C@H](O)CO)[C@@H]2NC(C)=O)nn1` (some centres undefined) here?
The Activity was 8.9%.

`CC(=O)N[C@H]1[C@H]([C@H](O)[C@H](O)CO)OC(C(=O)O)=C[C@@H]1n1cc(-c2ccccc2)nn1` was tested. Which Activity (MDCK [1]) did it give?
The Activity was 18.7%.

Which Activity (MDCK [1]) does the source give for `CC(=O)N[C@H]1[C@H]([C@H](O)[C@H](O)CO)OC(C(=O)O)=C[C@@H]1n1cc(-c2ccc(F)cc2)nn1` here?
Its Activity is “inactive”.

`COC(=O)C1=C[C@H](n2cc(C(=O)OC)nn2)[C@@H](NC(C)=O)[C@H]([C@H](O)[C@H](O)CO)O1` was tested. Which Activity (MDCK [1]) did it give?
The Activity was 9.9%.

`CC(=O)N[C@H]1[C@H]([C@H](O)[C@H](O)CO)OC(C(=O)O)=C[C@@H]1n1cc(-c2ccc(-c3ccccc3)cc2)nn1` was tested. Which Activity (MDCK [1]) did it give?
The Activity was 19.1%.

Which Activity (MDCK [1]) does the source give for `CCC(O)c1cn([C@H]2C=C(C(=O)O)O[C@@H]([C@H](O)[C@H](O)CO)[C@@H]2NC(C)=O)nn1` (some centres undefined) here?
Its Activity is >61.4%.

And the EC50 (MDCK [2])?
Its EC50 is 6.4 µM.

`CCCc1ccc(-c2cn([C@H]3C=C(C(=O)O)O[C@@H]([C@H](O)[C@H](O)CO)[C@@H]3NC(C)=O)nn2)cc1` was tested. Which Activity (MDCK [1]) did it give?
Its Activity is 22.1%.

How did the Activity (MDCK [1]) turn out when `CC(=O)N[C@H]1[C@H]([C@H](O)[C@H](O)CO)OC(C(=O)O)=C[C@@H]1n1cc(-c2ccccn2)nn1` was run?
Its Activity is “inactive”.

For `CC(=O)N[C@H]1[C@H]([C@H](O)[C@H](O)CO)OC(C(=O)O)=C[C@@H]1NC(=N)N` [ZANAMIVIR], which Activity (MDCK [1]) is on record?
Its Activity is 86.1%.

And the EC50 (MDCK [2])?
The EC50 was 2.8 µM.

`CCCOc1ccc(-c2cn([C@H]3C=C(C(=O)O)O[C@@H]([C@H](O)[C@H](O)CO)[C@@H]3NC(C)=O)nn2)cc1` was tested. Which Activity (MDCK [1]) did it give?
The Activity was 40.2%.

`CC(=O)N[C@H]1[C@H]([C@H](O)[C@H](O)CO)OC(C(=O)O)=C[C@@H]1n1cc(CN)nn1` was tested. Which Activity (MDCK [1]) did it give?
The Activity was “inactive”.

For `CC(=O)N[C@H]1[C@H]([C@H](O)[C@H](O)CO)OC(C(=O)O)=C[C@@H]1n1cc(C2CC2)nn1`, which Activity (MDCK [1]) is on record?
The Activity was 8.9%.

Which Activity (MDCK [1]) does the source give for `CC(=O)N[C@H]1[C@H]([C@H](O)[C@H](O)CO)OC(C(=O)O)=C[C@@H]1n1cc(COc2ccccc2)nn1` here?
The Activity was 34.8%.

How did the Activity (MDCK [1]) turn out when `CC(=O)N[C@H]1[C@H]([C@H](O)[C@H](O)CO)OC(C(=O)O)=C[C@@H]1n1cc(CCO)nn1` was run?
Its Activity is 14.5%.

For `CCc1ccc(-c2cn([C@H]3C=C(C(=O)O)O[C@@H]([C@H](O)[C@H](O)CO)[C@@H]3NC(C)=O)nn2)cc1`, which Activity (MDCK [1]) is on record?
Its Activity is 34.4%.

Which Activity (MDCK [1]) does the source give for `CC(=O)N[C@H]1[C@H]([C@H](O)[C@H](O)CO)OC(C(=O)O)=C[C@@H]1n1cc(CCCO)nn1` here?
The Activity was 6.3%.

How did the Activity (MDCK [1]) turn out when `CC(=O)N[C@H]1[C@H]([C@H](O)[C@H](O)CO)OC(C(=O)O)=C[C@@H]1n1cc(CN2CCOCC2)nn1` was run?
The Activity was 17.3%.
